We go through 28 compounds from EP4745117A1, “NOVEL INDENONE DERIVATIVE AND USE THEREOF” (Amyloid Solution Inc., priority 2023, dated 2025).

What is called EC50 is the concentration that produces a half-maximal response.

One assay concerns the target T1, Aβ1-42 (Homo sapiens, UniProt P05067).
T1 construct: dissolving Aβ1-42 or Tau-RD3 (Tau repeat domain 3) monomers in DMSO
Nature of the assay: Amyloid-beta disaggregation test by Thioflavin-T analysis. The settings on record: for EC50: Aβ1-42 50 µM aggregated 24 hours, then compound 0 - 500 µM for 48 hours at 37 °C, concentration disaggregating 50 % of aggregates vs control, read-out: EC50 (µM) Aβ; for disaggregation effect for amyloid-beta protein aggregates: statement in words summarising the Thioflavin-T results. The class given is biochemical. A digest of the protocol:
(§1)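 Aβ1-42 (50 µM) or Tau-RD3 (35 µM) pre-aggregated 24 h at 37 °C, then incubated with compound (500 µM down to 0 µM, serial dilution) for 48 h at 37 °C. Read-out by Thioflavin-T (5 µM solution, glycine buffer pH 8.5) fluorescence, ex 450/em 485 nm. Values expressed relative to 72 h aggregated protein-only control (100%).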

Assay [1] concerns amyloid-beta oligomers in HEK293 cells transfected with the APP E693Δ mutant plasmid. Nature of the assay: Amyloid-beta oligomer change by dot blot (A11 antibody) in an amyloid-beta oligomer-overexpressing cell line. The class given is cell-based. The settings on record: compound 10 µM, 48 hours, dot blot of cell lysate, relative to control group (FIG. 1). An excerpt:
To observe the change in intracellular amyloid-beta oligomers, a plasmid with the APP E693Δ (Osaka mutation) mutant, which is associated with early-onset Alzheimer's disease and is known to induce intracellular amyloid-beta oligomer formation, was obtained from GenScript. This plasmid was transfected into HEK293 cells using a liposome-mediated method (Lipofectamine) to prepare a cell line that overexpresses intracellular amyloid-beta oligomers.
HEK293 cells transfected with the APP E693Δ mutant plasmid were incubated for 48 hours in a 37 °C, 5 % CO2 incubator, and then treated with the compounds prepared in 1.1, which were diluted to a concentration of 10 µM in the cell culture medium. The untransfected control group was treated with 0.1 % DMSO, the same as the compound-treated group.
The compound-treated cell lines were again incubated for 48 hours in a 37 °C, 5 % CO2 incubator and then used in the experiment.
After incubating the control and compound-treated cells from Example 2.2, a dot blot was performed using the cell lysate. A 3.5 µg sample was spotted onto a nitrocellulose membrane and air-dried, and then the membrane to which the sample was adhered was blocked with 5 % skim milk. After incubating with the amyloid oligomer antibody A11 to allow binding, the membrane was washed 4 times with TBST, and the secondary antibody was bound. The image signal was measured using a chemiluminescent substrate.
It was confirmed that the amount of amyloid-beta oligomers was reduced by each compound treatment compared to the control group.

Assay [2] deals with Tau-RD3 (Tau repeat domain 3) (Homo sapiens, UniProt P10636). Nature of the assay: Tau disaggregation test by Thioflavin-T analysis. The class given is biochemical. The settings on record: for EC50: Tau-RD3 35 µM aggregated 24 hours, then compound 0 - 500 µM for 48 hours at 37 °C, concentration disaggregating 50 % of aggregates vs control, read-out: EC50 (µM) Tau; for disaggregation effect for tau protein aggregates: statement in words summarising the Thioflavin-T results. A digest of the protocol:
as §1

A value given as a limit tells only on which side of the number the result lay.

Sequence of Tau-RD3 (Tau repeat domain 3) (P10636 623-653 limits assumed): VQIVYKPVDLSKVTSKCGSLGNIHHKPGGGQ
T1 sequence (P05067 672-713 limits assumed): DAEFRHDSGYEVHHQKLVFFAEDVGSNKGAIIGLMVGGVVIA

With `CN1CCN(c2ccc3c(c2)C(=O)C(c2ccccc2)=C3c2ccccc2)CC1` [Compound 13, 6-(4-methylpiperazin-1-yl)-2,3-diphenyl-1H-inden-1-one], at Aβ1-42, the EC50 was less than 20 µM and the “disaggregation effect for amyloid-beta protein aggregates” value is reported as “remarkably excellent disaggregation effect”. In assay [1], the “amyloid-beta oligomer reduction effect” value is recorded as “reduction effect”. Moreover, in assay [2], the EC50 was less than 20 µM and the “disaggregation effect for tau protein aggregates” value is “remarkably excellent disaggregation effect”.
For the compound `Cc1ncsc1C1=C(c2cnn(C3CCN(C)CC3)c2)C(=O)c2cc(OCCCc3ccccc3)ccc21` [Compound 30, 2-(1-(1-methylpiperidin-4-yl)-1H-pyrazol-4-yl)-3-(4-methylthiazol-5-yl)-6-(3-phenylpropoxy)-1H-inden-1-one], the concentration giving a half-maximal response (EC50) (at Aβ1-42; in assay [2]) was less than 20 µM throughout. Besides, the “amyloid-beta oligomer reduction effect” value in assay [1] is listed as “reduction effect”.
For `Cc1ncsc1C1=C(c2scnc2C)c2ccc(OCCCc3ccccc3)cc2C1=O` [Compound 77, 2,3-bis(4-methylthiazol-5-yl)-6-(3-phenylpropoxy)-1H-inden-1-one], the EC50 (on Aβ1-42; in assay [2]) was less than 20 µM each time.
With `O=C1C(c2ccccc2)=C(c2ccccc2)c2ccc(OCCCc3ccccc3)cc21` [Compound 78, 2,3-diphenyl-6-(3-phenylpropoxy)-1H-inden-1-one], the EC50 on Aβ1-42 was 100 to 250 µM; in assay [2] it was more than 250 µM.
As for `Cc1ncsc1C1=C(c2scnc2C)c2ccc(N3CCN(C)CC3)cc2C1=O` [Compound 79, 6-(4-methylpiperazin-1-yl)-2,3-bis(4-methylthiazol-5-yl)-1H-inden-1-one], the EC50 (at Aβ1-42; in assay [2]) was 20 to 100 µM each time.
As to `CN1CCN(c2ccc3c(c2)C(=O)C(c2cccc(N4CCOCC4)c2)=C3c2cccc(N3CCOCC3)c2)CC1` [Compound 80, 6-(4-methylpiperazin-1-yl)-2,3-bis(3-morpholinophenyl)-1H-inden-1-one], the EC50 fell in the range of 20 to 100 µM at Aβ1-42 and 100 to 250 µM in assay [2].
Turning to `Cc1ncsc1C1=C(c2scnc2C)c2ccc(N3CCN(CCO)CC3)cc2C1=O` [Compound 81, 6-(4-(2-hydroxyethyl)piperazin-1-yl)-2,3-bis(4-methylthiazol-5-yl)-1H-inden-1-one], the EC50 (at Aβ1-42; in assay [2]) was 20 to 100 µM in each case.
Take `Cc1ccccc1C1=C(c2ccccc2C)c2ccc(O)cc2C1=O` [Compound 82, 6-hydroxy-2,3-di-o-tolyl-1H-inden-1-one]: the EC50 at Aβ1-42 was less than 20 µM; in assay [2], 20 to 100 µM.
Turning to `O=C1C(c2cncs2)=C(c2cncs2)c2ccc(OCCCc3ccccc3)cc21` [Compound 83, 6-(3-phenylpropoxy)-2,3-di(thiazol-5-yl)-1H-inden-1-one], at Aβ1-42, the EC50 was less than 20 µM and the “disaggregation effect for amyloid-beta protein aggregates” value is on record as “remarkably excellent disaggregation effect”. For the same compound, in assay [2], the 50% effective concentration (EC50) is less than 20 µM and the “disaggregation effect for tau protein aggregates” value is “remarkably excellent disaggregation effect”.
Consider `COc1ccc2c(c1)C(=O)C(c1cncs1)=C2c1cncs1` [Compound 83-5, 6-methoxy-2,3-di(thiazol-5-yl)-1H-inden-1-one], for which the EC50 (at Aβ1-42; in assay [2]) was 20 to 100 µM in each case.
As to `O=C1C(c2cncs2)=C(c2cncs2)c2ccc(O)cc21` [Compound 83-6, 6-hydroxy-2,3-di(thiazol-5-yl)-1H-inden-1-one], the EC50 on Aβ1-42 is more than 250 µM; in assay [2] it was 100 to 250 µM.
Consider `Cc1ccccc1C1=C(c2c(C)cccc2C)c2ccc(O)cc2C1=O` [Compound 84, 3-(2,6-dimethylphenyl)-6-hydroxy-2-(o-tolyl)-1H-inden-1-one], for which, at Aβ1-42, the EC50 was less than 20 µM and the “disaggregation effect for amyloid-beta protein aggregates” value was “remarkably excellent disaggregation effect”. In assay [2], the EC50 was less than 20 µM and the “disaggregation effect for tau protein aggregates” value is on record as “remarkably excellent disaggregation effect”.
In the case of `Cc1ncsc1C1=C(c2ccc(N3CCN(C)CC3)cc2)C(=O)c2ccccc21` [Compound 85, 2-(4-(4-methylpiperazin-1-yl)phenyl)-3-(4-methylthiazol-5-yl)-1H-inden-1-one], the EC50 (at Aβ1-42; in assay [2]) was more than 250 µM throughout.
Take `Cc1ncsc1C1=C(c2ccc(CN3CCN(C)CC3)cc2)C(=O)c2ccccc21` [Compound 86, 2-(4-((4-methylpiperazin-1-yl)methyl)phenyl)-3-(4-methylthiazol-5-yl)-1H-inden-1-one]: the EC50 at Aβ1-42 was 20 to 100 µM; in assay [2] it was less than 20 µM.
In the case of `Cc1ncsc1C1=C(c2ccc(CN3CCOCC3)cc2)C(=O)c2ccccc21` [Compound 87, 3-(4-methylthiazol-5-yl)-2-(4-(morpholinomethyl)phenyl)-1H-inden-1-one], the values for the EC50 (at Aβ1-42; in assay [2]) were less than 20 µM and 20 to 100 µM, respectively.
`Cc1ncsc1C1=C(c2cccc(CN3CCN(C)CC3)c2)C(=O)c2ccccc21` [Compound 88, 2-(3-((4-methylpiperazin-1-yl)methyl)phenyl)-3-(4-methylthiazol-5-yl)-1H-inden-1-one]: the EC50 was less than 20 µM on Aβ1-42 and 20 to 100 µM in assay [2].
`Cc1ncsc1C1=C(c2cccc(CN3CCOCC3)c2)C(=O)c2ccccc21` [Compound 89, 3-(4-methylthiazol-5-yl)-2-(3-(morpholinomethyl)phenyl)-1H-inden-1-one]: the EC50 on Aβ1-42 was 20 to 100 µM; in assay [2] it was 100 to 250 µM.
In the case of `CN1CCN(c2cccc(C3=C(c4ccccc4)c4ccccc4C3=O)c2)CC1` [Compound 91, 2-(3-(4-methylpiperazin-1-yl)phenyl)-3-phenyl-1H-inden-1-one], the values for the half-maximal effective concentration (EC50) (at Aβ1-42; in assay [2]) were less than 20 µM and more than 250 µM, respectively.
In the same order, the values of `Cc1ncsc1C1=C(c2ccc(CN3CCN(C)CC3)cc2)c2ccccc2C1=O` [Compound 92, 3-(4-((4-methylpiperazin-1-yl)methyl)phenyl)-2-(4-methylthiazol-5-yl)-1H-inden-1-one] are 20 to 100 µM and 20 to 100 µM.
Consider `Cc1ncsc1C1=C(c2cccc(CN3CCN(C)CC3)c2)c2ccccc2C1=O` [Compound 93, 3-(3-((4-methylpiperazin-1-yl)methyl)phenyl)-2-(4-methylthiazol-5-yl)-1H-inden-1-one], for which the EC50 (on Aβ1-42; in assay [2]) was 20 to 100 µM each time.
Consider `CN1CCN(c2ccc(C3=C(c4ccccc4)C(=O)c4ccccc43)cc2)CC1` [Compound 94, 3-(4-(4-methylpiperazin-1-yl)phenyl)-2-phenyl-1H-inden-1-one], for which the EC50 is less than 20 µM on Aβ1-42 and 20 to 100 µM in assay [2].
In the case of `CN1CCN(c2cccc(C3=C(c4ccccc4)C(=O)c4ccccc43)c2)CC1` [Compound 95, 3-(3-(4-methylpiperazin-1-yl)phenyl)-2-phenyl-1H-inden-1-one], the values for the EC50 (on Aβ1-42; in assay [2]) were 20 to 100 µM and more than 250 µM, respectively.
Turning to `CC(C)(C)c1cc(C2=C(c3ccccc3)C(=O)c3ccccc32)cc(C(C)(C)C)c1` [Compound 96, 3-(3,5-di-tert-butylphenyl)-2-phenyl-1H-inden-1-one], the EC50 (at Aβ1-42; in assay [2]) was more than 250 µM throughout.
In the case of `COc1cc(OC)c2c(c1)C(=O)C(c1ccccc1)=C2c1ccccc1` [Compound 97, 4,6-dimethoxy-2,3-diphenyl-1H-inden-1-one], the EC50 is less than 20 µM at Aβ1-42 and more than 250 µM in assay [2].
In the case of `O=C1C(c2ccccc2)=C(c2ccccc2)c2ncccc21` [Compound 98, 6,7-diphenyl-5H-cyclopenta[b]pyridin-5-one], the EC50 (at Aβ1-42; in assay [2]) was more than 250 µM in each case.
For `CNC(=O)c1ccccc1C1=C(c2ccccc2C)c2ccccc2C1=O` [Compound 99, N-methyl-2-(1-oxo-3-(o-tolyl)-1H-inden-2-yl)benzamide], the EC50 (on Aβ1-42; in assay [2]) was more than 250 µM each time.
As to `CCOC(=O)c1ccccc1C1=C(c2ccccc2C)c2ccccc2C1=O` [Compound 99-7, ethyl 2-(1-oxo-3-(o-tolyl)-1H-inden-2-yl)benzoate], the EC50 on Aβ1-42 was 100 to 250 µM; in assay [2], more than 250 µM.
In the same order, the values of `Cc1ccccc1C1=C(c2ccccc2C(=O)O)C(=O)c2ccccc21` [Compound 99-8, 2-(1-oxo-3-(o-tolyl)-1H-inden-2-yl)benzoic acid] are more than 250 µM and 20 to 100 µM.
